Patent US4997652A, “Biodegradable ocular implants” (priority 1989, dated 1991)
Where “and” joins values, the source holds several entries; their conditions need not be identical. Identical values can stand only once. Like-named read-outs stand apart in the source and are kept apart here.

How the values were obtained:
[1] = Residual vitreous doxorubicin after injection of doxorubicin into the PC; type: in vivo, rabbits
Experimental: 1. 50 μg/0.1 ml doxorubicin was injected into the posterior chamber (PC) of each of 10 rabbits. The contralateral eye served as control.

[2] = in vivo; design: species or system New Zealand white rabbits; details: rabbit
Experimental: 1. 50 μg/0.1 ml doxorubicin was injected into the AC of 10 New Zealand white rabbits. The AC was tapped for doxorubicin assay.

[3] = test system: eye; experiment: Ocular toxicity observation after AC injection of unencapsulated doxorubicin; type: in vivo, New Zealand white rabbits
Experimental: 2. 50 μg/0.10 ml doxorubicin was injected into the […] in each of two rabbits. The contralateral eye was given 0.10 ml of normal saline.

[4] = test system: eye; experiment: Clinical observation of eye after PC injection of doxorubicin; type: in vivo, rabbits; details: free drug
Experimental: 2. 50 μg/0.10 ml of doxorubicin was injected into one eye of two animals for clinical observation for one week. Saline control was injected into the contralateral eye.

[5] = 50 ug into PC right eye, free drug, 0 hours

For `COc1cccc2c1C(=O)c1c(O)c3c(c(O)c1C2=O)C[C@@](O)(C(=O)CO)C[C@@H]3O[C@H]1C[C@H](N)[C@H](O)[C@H](C)O1` [doxorubicin], the “Residual vitreous doxorubicin, Mean ± SD” value [1, 5] was 8.55 ± 0.24 µg/mL, the “Residual vitreous doxorubicin, single sample” value [1, 5] was 8.40 µg/mL and 8.74 µg/mL and the “Residual vitreous doxorubicin, single sample” value ([1]; 50 ug into PC right eye, free drug, 2 hours, 120 min) was 4.65 µg/mL. The “Residual vitreous doxorubicin, single sample” value ([1]; 50 ug into PC right eye, free drug, 4 hours, 240 min) was 3.4 µg/mL, the “Residual vitreous doxorubicin, single sample” value ([1]; 50 ug into PC right eye, free drug, 8 hours, 480 min) was 0.75 µg/mL and the “Residual vitreous doxorubicin, single sample” value ([1]; 50 ug into PC right eye, free drug, 16 hours, 960 min) was 0.21 µg/mL. For the same compound, the concentration at 2 h ([1]; rabbit, vitreous, 0.05 mg, 50 ug into PC right eye, free drug, 2 hours, read-out: Residual vitreous doxorubicin, Mean ± SD) was 5590 ± 1340 ng/mL, the concentration at 2 h ([1]; rabbit, vitreous, 0.05 mg, 50 ug into PC right eye, free drug, 2 hours, read-out: Residual vitreous doxorubicin, single sample) was 6540 ng/mL and the concentration at 4 h ([1]; rabbit, vitreous, 0.05 mg, 50 ug into PC right eye, free drug, 4 hours, read-out: Residual vitreous doxorubicin, Mean ± SD) was 3850 ± 640 ng/mL. It also gave a concentration at 4 h ([1]; rabbit, vitreous, 0.05 mg, 50 ug into PC right eye, free drug, 4 hours, read-out: Residual vitreous doxorubicin, single sample) of 4300 ng/mL, a concentration at 8 h ([1]; rabbit, vitreous, 0.05 mg, 50 ug into PC right eye, free drug, 8 hours, read-out: Residual vitreous doxorubicin, Mean ± SD) of 860 ± 160 ng/mL and a concentration at 8 h ([1]; rabbit, vitreous, 0.05 mg, 50 ug into PC right eye, free drug, 8 hours, read-out: Residual vitreous doxorubicin, single sample) of 980 ng/mL. For the same compound, the concentration at 16 h ([1]; rabbit, vitreous, 0.05 mg, 50 ug into PC right eye, free drug, 16 hours, read-out: Residual vitreous doxorubicin, Mean ± SD) was 240 ± 40 ng/mL, the concentration at 16 h ([1]; rabbit, vitreous, 0.05 mg, 50 ug into PC right eye, free drug, 16 hours, read-out: Residual vitreous doxorubicin, single sample) was 260 ng/mL and the half-life ([1]; rabbit, vitreous, 0.05 mg, PC injection, 50 ug, read-out: halflife of free doxorubicin (converted)) was roughly 3 h. The half-life [2] was roughly 1 h, the ocular toxicity [3] was “causes ocular inflammation and corneal edema” and the “time of ocular inflammation and corneal edema after AC injection” value [3] was 2 to 3 days. For the same compound, the “clinical tolerance of PC injection” value [4] was “well tolerated” and the evidence of toxicity [4] was “No evidence of toxicity”.
